Columns and labels:
Assay type in all cases: cell-based, human
MMP-1 = test: Wrinkle improvement efficacy: MMP-1 mRNA expression in UVB-irradiated HDFa; conditions: UVB 20 mJ/cm^2, treated with 50 μM, positive control
Protocol: In order to confirm an anti-aging efficacy of the Iris germanica rhizome-derived exosomes, they were evaluated for their effect on MMP-1 expression by comparing them with the Iris germanica rhizome extracts for each solvent. After inoculating a human dermal fibroblast (HDFa), they were cultured in a culture medium of Fibroblast Basal Medium (Medium 106) containing 100 IU/mL of penicillin and 100 μg/mL of streptomycin under 5% CO2 at 37° C. for 24 hours. After the culture, the medium was discarded, and the Iris germanica rhizome-derived exosomes (stock concentration 9.90×10^9 particles/mL) and the Iris germanica rhizome extracts for each solvent (stock concentration 100 mg/mL) were treated at each concentration and cultured for 48 hours. In order to induce cell damage, the remaining cultured cell groups except for the non-UVB irradiation group were removed from the medium, and then the medium was irradiated with 20 mJ/cm^2 of UVB and replaced with a new medium, which was then cultured for 24 hours. After 24 hours, RNA was extracted from the cultured cells using a TransZol reagent, followed by performing RT-PCR (real-time genetic polymerase chain reaction) to measure an amount of mRNA change in MMP-1, which is related to skin aging and wrinkle formation. A product generated by the PCR was identified with a Gel Documentation system by performing electrophoresis on a 1% agarose gel. […]

COL1A1 = test: Wrinkle improvement efficacy: COL1A1 mRNA expression in HDFa; conditions: treated with 50 μM, positive control
Protocol: In order to confirm an anti-aging efficacy of the Iris germanica rhizome-derived exosomes, they were evaluated for their effect on COL1A1 expression by comparing them with the Iris germanica rhizome extracts for each solvent. After inoculating a human dermal fibroblast (HDFa), they were cultured in a culture medium of Fibroblast Basal Medium (Medium 106) containing 100 IU/mL of penicillin and 100 μg/mL of streptomycin under 5% CO2 at 37° C. for 24 hours. After culturing, the medium was discarded, and the Iris germanica rhizome-derived exosomes (stock concentration 9.90×10^9 particles/mL) and the Iris germanica rhizome extracts for each solvent (stock concentration 100 mg/mL) were treated at each concentration and cultured for 48 hours. After culturing, RNA was extracted from the cultured cells using a TransZol reagent, followed by performing RT-PCR (real-time genetic polymerase chain reaction) to measure an amount of mRNA change in collagen, which maintains a skin connective tissue. A product generated by the PCR was identified with a Gel Documentation system by performing electrophoresis on a 1% agarose gel. In this case, a negative control group was treated with PBS, and a positive control group was treated with 50 μM of retinyl palmitate. […]

AQP3 (Aquaporin 3) = test: Moisturizing efficacy: AQP3 mRNA expression by RT-PCR in HEKa; conditions: treated with 0.01%, positive control
Protocol: In order to confirm a moisturizing efficacy of the Iris germanica rhizome-derived exosomes, they were evaluated for their effect on AQP3 expression by comparing them with the Iris germanica rhizome extracts for each solvent. After inoculating a human epidermal keratinocyte (HEKa), they were cultured in a culture medium of Dulbecco Modified Eagle Medium (DMEM) supplemented with 100 IU/mL of penicillin and 100 μg/mL of streptomycin under 5% CO2 at 37° C. for 24 hours. After the culture, the medium was discarded, and the iris germanica rhizome-derived exosomes (stock concentration 9.90×10^9 particles/mL) and the iris germanica rhizome extracts for each solvent (stock concentration 100 mg/mL) were treated at each concentration and cultured for 48 hours. Thereafter, RNA was extracted from the cultured cells using a TransZol reagent, followed by performing RT-PCR (real-time genetic polymerase chain reaction) to measure an amount of mRNA change in AQP3 (Aquaporin 3), which is a moisturizing factor involved in moisture movement in the cells and is a protein that plays an important role in skin moisturization. A product generated by the PCR was identified with a Gel Documentation system by performing electrophoresis on a 1% agarose gel. In this case, a negative control group was treated with PBS, and a positive control group was treated with 0.01% of a hyaluronic acid. […]

CCCCCCCCCCCCCCCC(=O)OC/C=C(C)/C=C/C=C(C)/C=C/C1=C(C)CCCC1(C)C [retinyl palmitate]
MMP-1 expression rate (MMP-1): 72.81%
COL1A1 expression rate (COL1A1): 173.93%

hyaluronic acid
AQP3 expression rate (AQP3 (Aquaporin 3)): 155.69%

Reference: patent publication US20250127709A1, “COSMETIC COMPOSITION CONTAINING IRIS GERMANICA ROOT-DERIVED EXOSOMES AS AN ACTIVE INGREDIENT” (PP PRODUITS PRESTIGES SA, priority 2021, published 2025)
